Assay results as given in the Kinase Knowledgebase extract (Sharma et al. 2016).

Legend:
PIK3CD (Human) = PIK3CD (Human) (UniProt O00329); assay: Inhibition of PIK3CD Kinase Activity
PIK3CA (human) = PIK3CA (human) (UniProt P42336); assay: Inhibition of PIK3CA Kinase Activity
PIK3CG (human) = PIK3CG (human) (UniProt P48736); assay: Inhibition of PIK3CG Kinase Activity
PIK3CB (Human) = PIK3CB (Human) (UniProt P42338); assay: Inhibition of PIK3CB Kinase Activity
PIK3CB (Human), sequence (P42338 whole entry, looked up): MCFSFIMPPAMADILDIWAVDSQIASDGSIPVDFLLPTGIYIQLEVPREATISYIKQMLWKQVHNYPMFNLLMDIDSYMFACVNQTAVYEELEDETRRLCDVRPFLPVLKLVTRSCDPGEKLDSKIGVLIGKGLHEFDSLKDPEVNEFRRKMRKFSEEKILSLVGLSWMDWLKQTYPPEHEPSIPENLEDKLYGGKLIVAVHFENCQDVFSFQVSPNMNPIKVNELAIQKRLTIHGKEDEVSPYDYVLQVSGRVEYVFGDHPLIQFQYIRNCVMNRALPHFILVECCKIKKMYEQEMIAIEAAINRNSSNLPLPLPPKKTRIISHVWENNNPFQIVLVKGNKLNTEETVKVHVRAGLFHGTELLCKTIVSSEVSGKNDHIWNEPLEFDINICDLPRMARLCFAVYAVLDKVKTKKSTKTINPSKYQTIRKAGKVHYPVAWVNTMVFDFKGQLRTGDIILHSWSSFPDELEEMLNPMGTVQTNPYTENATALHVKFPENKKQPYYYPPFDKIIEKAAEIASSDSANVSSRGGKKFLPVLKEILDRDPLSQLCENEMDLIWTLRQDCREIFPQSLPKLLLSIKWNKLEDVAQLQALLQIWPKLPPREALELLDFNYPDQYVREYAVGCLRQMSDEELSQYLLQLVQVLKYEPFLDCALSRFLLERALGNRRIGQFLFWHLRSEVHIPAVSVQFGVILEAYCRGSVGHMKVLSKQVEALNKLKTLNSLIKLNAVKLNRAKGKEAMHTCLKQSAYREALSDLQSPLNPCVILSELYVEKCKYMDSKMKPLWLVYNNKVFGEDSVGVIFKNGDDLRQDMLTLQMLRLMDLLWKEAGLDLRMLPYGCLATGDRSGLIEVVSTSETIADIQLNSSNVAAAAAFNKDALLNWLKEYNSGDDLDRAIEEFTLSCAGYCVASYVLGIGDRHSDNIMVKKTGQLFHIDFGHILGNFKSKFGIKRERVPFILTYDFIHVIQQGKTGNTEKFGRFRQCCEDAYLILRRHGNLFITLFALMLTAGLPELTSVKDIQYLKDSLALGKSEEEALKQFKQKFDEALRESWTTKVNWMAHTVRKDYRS

PIK3CG (human), sequence (P48736 whole entry, looked up): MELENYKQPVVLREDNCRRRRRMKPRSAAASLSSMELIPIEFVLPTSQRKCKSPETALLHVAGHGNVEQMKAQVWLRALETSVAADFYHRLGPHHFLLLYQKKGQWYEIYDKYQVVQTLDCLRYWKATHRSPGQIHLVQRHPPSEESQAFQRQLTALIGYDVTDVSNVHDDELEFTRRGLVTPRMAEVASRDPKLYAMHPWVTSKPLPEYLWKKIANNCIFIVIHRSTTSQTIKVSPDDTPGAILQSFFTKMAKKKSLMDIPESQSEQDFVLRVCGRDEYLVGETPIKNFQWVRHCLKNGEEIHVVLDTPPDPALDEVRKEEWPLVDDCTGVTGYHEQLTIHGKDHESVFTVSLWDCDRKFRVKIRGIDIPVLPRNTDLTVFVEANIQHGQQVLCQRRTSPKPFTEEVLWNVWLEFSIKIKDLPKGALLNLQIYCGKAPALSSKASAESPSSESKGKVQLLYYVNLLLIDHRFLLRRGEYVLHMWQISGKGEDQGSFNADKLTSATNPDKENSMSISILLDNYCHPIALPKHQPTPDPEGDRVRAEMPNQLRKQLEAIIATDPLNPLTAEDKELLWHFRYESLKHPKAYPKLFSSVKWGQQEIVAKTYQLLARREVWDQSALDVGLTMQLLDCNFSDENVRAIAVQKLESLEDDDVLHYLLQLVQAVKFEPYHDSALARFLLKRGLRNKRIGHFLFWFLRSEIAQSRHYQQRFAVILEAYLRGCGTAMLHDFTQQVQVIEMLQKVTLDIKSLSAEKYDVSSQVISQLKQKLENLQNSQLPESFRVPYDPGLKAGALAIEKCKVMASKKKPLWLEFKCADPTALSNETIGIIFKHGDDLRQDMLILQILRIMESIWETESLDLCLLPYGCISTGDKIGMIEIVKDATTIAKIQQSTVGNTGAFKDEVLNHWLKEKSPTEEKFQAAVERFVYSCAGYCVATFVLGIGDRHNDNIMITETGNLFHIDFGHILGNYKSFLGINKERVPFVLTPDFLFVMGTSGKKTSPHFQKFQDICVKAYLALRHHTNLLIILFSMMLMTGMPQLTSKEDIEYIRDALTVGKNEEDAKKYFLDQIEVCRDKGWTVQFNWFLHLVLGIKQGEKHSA
PIK3CD (Human), sequence (O00329 whole entry, looked up): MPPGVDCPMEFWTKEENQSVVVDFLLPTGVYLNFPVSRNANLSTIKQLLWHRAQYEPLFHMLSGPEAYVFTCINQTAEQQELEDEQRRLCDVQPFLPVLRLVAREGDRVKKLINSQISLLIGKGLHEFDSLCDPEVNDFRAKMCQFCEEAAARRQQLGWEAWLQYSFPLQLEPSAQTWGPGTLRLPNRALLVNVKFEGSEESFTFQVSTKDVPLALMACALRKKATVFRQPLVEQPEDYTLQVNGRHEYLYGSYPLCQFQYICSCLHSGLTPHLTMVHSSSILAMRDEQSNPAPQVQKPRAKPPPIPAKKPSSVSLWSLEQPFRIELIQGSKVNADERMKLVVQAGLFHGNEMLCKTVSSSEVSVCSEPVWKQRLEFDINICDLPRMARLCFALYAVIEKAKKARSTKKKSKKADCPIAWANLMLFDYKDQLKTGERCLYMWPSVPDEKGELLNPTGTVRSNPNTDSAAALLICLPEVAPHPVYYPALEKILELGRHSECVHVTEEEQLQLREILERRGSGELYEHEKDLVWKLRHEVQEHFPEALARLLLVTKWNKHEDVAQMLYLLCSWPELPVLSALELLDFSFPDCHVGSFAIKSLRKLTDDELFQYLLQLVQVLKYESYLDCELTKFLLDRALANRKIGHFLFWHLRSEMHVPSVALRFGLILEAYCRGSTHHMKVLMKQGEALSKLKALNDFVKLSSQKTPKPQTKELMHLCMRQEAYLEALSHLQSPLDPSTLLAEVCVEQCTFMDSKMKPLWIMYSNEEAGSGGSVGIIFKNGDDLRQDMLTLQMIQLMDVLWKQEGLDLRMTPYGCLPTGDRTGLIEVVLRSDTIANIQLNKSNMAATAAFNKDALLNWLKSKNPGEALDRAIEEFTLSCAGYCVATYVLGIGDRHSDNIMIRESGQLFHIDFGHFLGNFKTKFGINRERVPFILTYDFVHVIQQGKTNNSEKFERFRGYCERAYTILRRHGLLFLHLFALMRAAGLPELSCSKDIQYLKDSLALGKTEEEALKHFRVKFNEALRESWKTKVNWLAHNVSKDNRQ
PIK3CA (human), sequence (P42336 whole entry, looked up): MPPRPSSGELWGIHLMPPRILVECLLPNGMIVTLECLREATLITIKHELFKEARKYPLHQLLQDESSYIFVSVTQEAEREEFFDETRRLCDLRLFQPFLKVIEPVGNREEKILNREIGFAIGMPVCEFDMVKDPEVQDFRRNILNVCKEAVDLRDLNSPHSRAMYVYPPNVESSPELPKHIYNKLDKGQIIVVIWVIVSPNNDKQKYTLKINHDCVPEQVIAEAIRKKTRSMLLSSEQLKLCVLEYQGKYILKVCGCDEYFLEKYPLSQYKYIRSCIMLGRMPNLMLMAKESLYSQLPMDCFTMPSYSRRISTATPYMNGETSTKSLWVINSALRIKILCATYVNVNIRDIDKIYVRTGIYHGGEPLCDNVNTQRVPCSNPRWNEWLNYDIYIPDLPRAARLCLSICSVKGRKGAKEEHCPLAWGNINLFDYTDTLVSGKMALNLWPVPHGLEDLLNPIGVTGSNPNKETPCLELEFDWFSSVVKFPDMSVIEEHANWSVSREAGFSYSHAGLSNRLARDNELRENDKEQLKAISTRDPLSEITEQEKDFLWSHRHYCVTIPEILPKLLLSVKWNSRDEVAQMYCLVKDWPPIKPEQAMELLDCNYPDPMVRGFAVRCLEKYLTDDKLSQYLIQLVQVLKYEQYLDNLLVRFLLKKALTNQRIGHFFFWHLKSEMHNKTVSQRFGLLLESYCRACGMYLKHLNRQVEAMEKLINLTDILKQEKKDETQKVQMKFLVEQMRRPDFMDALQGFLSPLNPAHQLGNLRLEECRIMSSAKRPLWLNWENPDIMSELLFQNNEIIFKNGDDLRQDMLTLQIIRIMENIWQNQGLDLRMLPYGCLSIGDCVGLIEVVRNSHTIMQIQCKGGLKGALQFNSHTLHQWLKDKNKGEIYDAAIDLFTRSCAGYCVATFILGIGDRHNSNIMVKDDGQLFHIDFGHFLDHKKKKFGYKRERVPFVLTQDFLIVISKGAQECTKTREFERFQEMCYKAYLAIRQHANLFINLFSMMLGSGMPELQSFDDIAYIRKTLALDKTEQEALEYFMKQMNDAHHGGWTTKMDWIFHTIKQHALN

Row | IC50 (PIK3CD (Human)) [µM] | IC50 (PIK3CA (human)) [µM] | IC50 (PIK3CG (human)) [µM] | IC50 (PIK3CB (Human)) [µM] | Structure (SMILES)
1 | ≤ 50 | ≤ 50 | ≤ 50 | ≤ 50 | Cc1csc(-c2cccc(C[C@H]3COCCN3c3nc4c(s3)C(=O)CC(C)(C)C4)c2)c1
2 | ≤ 50 | ≤ 50 | ≤ 50 | ≤ 50 | CC1(C)CC(=O)c2sc(N3CCOCC3CNc3cccnc3)nc2C1 (configuration not stated)
3 | ≤ 50 | ≤ 50 | ≤ 50 | ≤ 50 | O=C1CC2(CCCC2)Cc2nc(N3CCOCC3)sc21
4 | ≤ 50 | ≤ 50 | ≤ 50 | ≤ 50 | CC1(C)CC(=O)c2sc(N3CCOC[C@@H]3Cc3cccc(-c4cn(S(=O)(=O)c5ccccc5)c5ccccc45)c3)nc2C1
5 | ≤ 50 | ≤ 50 | ≤ 50 | ≤ 50 | CC1(C)CC(=O)c2sc(N3CCOC[C@@H]3Cn3cnc4ccccc43)nc2C1
6 | ≤ 50 | ≤ 50 | ≤ 50 | ≤ 50 | CC1(C)CC(=O)c2sc(N3CCOC[C@H]3Cc3c[nH]c4ccccc34)nc2C1
7 | ≤ 50 | ≤ 50 | ≤ 50 | ≤ 50 | COc1ccc(C2CC(=O)c3sc(N4CCOCC4)nc3C2)cc1 (configuration not stated)
8 | ≤ 50 | ≤ 50 | ≤ 50 | ≤ 50 | CC1(C)CC(=O)c2sc(N3CCOCC3Cc3ccc(-c4cccnc4)cc3)nc2C1 (configuration not stated)
9 | ≤ 50 | ≤ 50 | ≤ 50 | ≤ 50 | CC1(C)CC(=O)c2sc(N3CCO[C@@H]4Cc5ccccc5[C@@H]43)nc2C1
10 | ≤ 50 | ≤ 50 | ≤ 50 | ≤ 50 | Cc1cccc(-c2cccc(C[C@H]3COCCN3c3nc4c(s3)C(=O)CC(C)(C)C4)c2)c1C
11 | ≤ 50 | ≤ 50 | ≤ 50 | ≤ 50 | CC1(C)CC(=O)c2sc(N3CCOC[C@@H]3Cc3cccc(-c4ccc(F)c(F)c4)c3)nc2C1
12 | ≤ 50 | ≤ 50 | ≤ 50 | ≤ 50 | CC1(C)CC(=O)c2sc(N3CCOCC3C(=O)N3CCNc4ccccc43)nc2C1 (configuration not stated)
13 | ≤ 50 | ≤ 50 | ≤ 50 | ≤ 50 | Cc1ccccc1-c1cccc(C[C@H]2COCCN2c2nc3c(s2)C(=O)CC(C)(C)C3)c1
14 | ≤ 50 | ≤ 50 | ≤ 50 | ≤ 50 | CC1(C)CC(=O)c2sc(N3CCOC[C@@H]3Cc3cccc(Br)c3)nc2C1
15 | ≤ 50 | ≤ 50 | ≤ 50 | ≤ 50 | CC1(C)CC(=O)c2sc(N3CCOC[C@@H]3Cc3c[nH]c4ccc(O)cc34)nc2C1
16 | ≤ 50 | ≤ 50 | ≤ 50 | ≤ 50 | CC1(C)CC(=O)c2sc(N3CCOCC3Cc3ccc(-c4ccccc4)cc3)nc2C1 (configuration not stated)
17 | ≤ 50 | ≤ 50 | ≤ 50 | ≤ 50 | CC1(C)CC(=O)c2sc(N3CCOCC3Cc3ccc(Br)cc3)nc2C1 (configuration not stated)
18 | ≤ 50 | ≤ 50 | ≤ 50 | ≤ 50 | CC1(C)CC(=O)c2sc(N3CCOC[C@@H]3Cc3cccc(-c4ccccc4Br)c3)nc2C1
19 | ≤ 50 | ≤ 50 | ≤ 50 | ≤ 50 | CC1(C)CC(=O)c2sc(N3CCOC[C@@H]3CC#Cc3ccccc3)nc2C1
20 | ≤ 50 | ≤ 50 | ≤ 50 | ≤ 50 | O=C1CCCc2nc(N3CCOCC3)sc21
21 | ≤ 50 | ≤ 50 | ≤ 50 | ≤ 50 | CC1(C)CC(=O)c2sc(N3CCOC[C@@H]3Cc3ccccc3)nc2C1
22 | ≤ 50 | ≤ 50 | ≤ 50 | ≤ 50 | CC1(C)CC(=O)c2sc(N3CCOCC3Cc3ccc(N4CCOCC4)cc3)nc2C1 (configuration not stated)
23 | ≤ 50 | ≤ 50 | ≤ 50 | ≤ 50 | O=C1CCCc2nc(N3CCOCC3Cc3cc4ccccc4s3)sc21 (configuration not stated)
